Where no end group is shown, it is not given here. The star is where a group is joined. SO3H = O=S(=O)(O)*

The values that follow come from US20080234230A1, “Pharmaceutical Composition for Regulation of Pancreatic Juice Secretion Comprising a LPA Receptor Modulator” (ONO PHARMACEUTICAL CO., LTD., priority 2001, published 2008).

Experiment [1] relates to cholecystokinin-induced pancreatic juice secretion. Briefly: Pancreatic juice secreted in rats by stimulation with cholecystokinin (CCK-8) (Example 4). The class given is in vivo, rat. To be noted: CCK-8 0.12 μg/kg/h. Here is the method:
The pancreatic juice secreted in rats was collected in the same manner as described in Example 1. In order to ascertain the effect of LPA on excessive pancreatic juice secretion by CCK, an experiment was conducted according to a protocol as shown in Table 2. As CCK, CCK-8 (Sigma No. C-2175) was used.
Saline was infused through the cervical vein and the femoral vein 1 hour before administration of the drug, during which time the amount of pancreatic juice secreted was measured in order to ascertain that there was no considerable difference between individual animals in the pre-value to the pancreatic juice secretion in the individual animals. After 1 hour infusion of saline, to the 18:3-LPA group and the 18:3-LPC group, were infused 3 mg/kg/h of 18:3-LPA and 10 mg/kg/h of 18:3-LPC, respectively, through the femoral vein. After lapse of 1 hour, CCK-8 was intravenously infused for stimulation through the cervical vein in order to examine the effect of LPA on the excessive pancreatic juice secretion. To the control group (vehicle) with no stimuli by CCK-8, 0.5% BSA in saline was administered through the cervical vein. On the other hand, saline was infused to the LPA control group (vehicle) through the femoral vein. In other groups, CCK-8 was administered through the cervical vein at a rate of 0.12 μg/kg/h and 1 ml/h. In the 18:3-LPA group and the 18:3-LPC group, 3 mg/kg/h of 18:3-LPA and 10 mg/kg/h of 18:3-LPC, respectively, were infused through the femoral vein. In the control group with no stimuli by CCK-8 and in the 18:3-LPA control group (vehicle), saline was administered through the femoral vein. One hour after the final administration (Admn.2), the volume of pancreatic juice collected was measured.

Another experiment concerns lipase secretion. Briefly: Determination of the amount of lipase secreted (Example 3). The experiment is classed as in vivo, rat. The note with it: rats. Here is the method:
The pancreatic juice collected in Example 1 was diluted with saline at an appropriate dilution rate and the lipase activity was measured with a reagent contained in Liquitech Lipase Color kit (Roche Diagnostics). Then, 100 μl of a kit R-1 solution was added to 10 μl of a lipase standard solution (Worthington Biochemical; prepared to 1 U/L to 1,000 U/L with saline) or the collected diluted pancreatic juice, and the mixture was incubated at 37° C. for 5 minutes. Then, 60 μl of a kit R-2 solution was added and the variation (Vmax) of optical density (OD) at 570-700 nm was monitored at 37° C. for 3 minutes (SPECTRAMAX 250). The lipase activity of the pancreatic juice was calculated from a lipase standard curve to evaluate the effect of the subject substance by means of the secreted amount of the enzyme (U/h) obtained by the enzyme activity (concentration)(U/L) multiplied by the amount of pancreatic juice collected (L/h).

The subject of experiment [2] is pancreatic juice secretion. Briefly: Determination of the amount of pancreatic juice secreted in rats (Example 1). The class given is in vivo, rat. Here is the method:
Male rats (8 to 9 week-old) fasting from the morning of the previous day were anesthetized by subcutaneous application of urethane (1.2 g/5 ml/kg) and polyethylene tubes were inserted into the arteria carotis communis and the femoral vein. The abdomen was cut open along the median line and the gastric pylorus was ligated. Then, a polyethylene tube was inserted into the bile duct at the hepatic portal portion, through which the tip of the tube was inserted into the pore opened in the duodenum intestine in order to return bile to the duodenum intestine. The origin of the hepatoapancreatic tube from the duodenum intestine was cut open, into which a tube was inserted in the same way as in the bile duct and led outside the body. Pure pancreatic juice was collected from the tube.
The drug was continuously administered through the femoral vein with saline. On the other hand, a saline containing 18:3-LPA, 18:3-LPC or 0.5% bovine serum albumin (Sigma, A-0281) as control (vehicle) was infused (1 ml/h) through the cervical vein, and pancreatic juice was collected for 1 hour.
The volume of the collected pancreatic juice was measured. In this connection, saline was infused through the cervical vein and the femoral vein 1 hour before administration of the drug, during which time the amount of pancreatic juice secreted was measured in order to ascertain that there was no considerable difference between individual animals in the pre-value to the pancreatic juice secretion in the individual animals.

The subject of a further experiment is amylase secretion. As to the kind of experiment: Determination of the amount of amylase secreted (Example 2). The experiment is classed as in vivo, rat. Here is the method: The pancreatic juice collected in Example 1 was diluted with Dulbecco's phosphate-buffered saline(−) (PBS(−)) at an appropriate dilution rate, of which the amylase activity was determined with a reagent of a Diacolor AMY Neorate (Ono Pharmaceutical) kit. To 10 μl of an amylase standard solution (Worthington Biochemical, diluted to 100 U/L to 6,400 U/L with PBS(−)) or the collected diluted pancreatic juice was added 50 μl of an enzyme reagent of the kit, and the mixture was incubated at 37° C. for 3 minutes. Then, after addition of 50 μl of a substrate reagent of the kit, the variation (Vmax) of optical density (OD) at 400 nm was monitored at 37° C. for 3 minutes (SPECTRAMAX 250). The amylase activity was calculated from an amylase standard curve to evaluate the effect of the subject substance by means of the secreted amount of the enzyme (U/h) obtained by the enzyme activity (concentration) (U/L) multiplied by the amount of pancreatic juice collected (L/h).

The test system of experiment [3] is pancreatic juice secretion. Briefly: Effect of LPA receptor or EDG-2 antagonist on pancreatic juice secretion in rats (Example 7). The experiment is classed as in vivo, rat. Here is the method: Using Compound 1 having the effect as a EDG-2 antagonist was confirmed in Example 5, the effect of LPA on the pancreatic juice secretion was examined.
In rats, (1) 18:3-LPA and (2) saline as a control (vehicle) for 18:3-LPA were respectively infused through the femoral vein, and (3) Compound 1 and (4) 5% bovine serum albumin/10% DMSO/saline as a control (vehicle) for Compound 1 were respectively infused through the cervical vein, at a rate of 0.5 ml/h for 1 hour.
On the other hand, saline was previously infused through the femoral vein and cervical vein (0.5 ml/h), and after one hour the pancreatic juice was collected in order to ascertain that there was no difference in the initial volumes of the secreted pancreatic juice in rats in each group.

Experiment [4] has as its system pancreatic juice secretion. As to the kind of experiment: Effect of LPA receptor or EDG-2 agonist on pancreatic juice secretion in rats (Example 6). To be noted: rat, intravenous infusion through the cervical vein. The class given is in vivo. The protocol: Using an LPA receptor or EDG-2 agonist, the effect of LPA on the pancreatic juice secretion was examined. An LPA receptor agonist 18:3-LPA was intravenously infused to a rat through the cervical vein, and the amount of pancreatic juice secreted was measured. In a group to which 18:3-LPA was administered, the pancreatic juice secretion was inhibited in rats.

The mark [5] stands for this setting: 10 mg/kg/h, 1 ml/h, i.v. infusion.

As for “CCK-8: cholecystokinin, CCK-8 (Sigma No. C-2175), used to stimulate pancreatic juice secretion (DY(SO3H)MGWMDF-NH2; UniProt P06307 96-103, looked up)”, the “secretion of pancreatic juice (stimulation)” value in experiment [1] (1 ml/h through the cervical vein) is reported as “markedly increased”.

As to `CC/C=C\C/C=C\C/C=C\CCCCCCCC(=O)OCC(O)COP(=O)([O-])OCC[N+](C)(C)C` (stereo not drawn) [18:3-LPC, 1-linolenoyl lisophosphatidylcholine, reference compound], the “pancreatic juice secretion induced by CCK-8” value in experiment [1] (10 mg/kg/h, 1 ml/h, intravenous infusion) is on record as “no inhibitory effect”. Moreover, the lipase secretion entry in the experiment with lipase secretion (setting [5]) was “no inhibitory effect”. Moreover, the pancreatic juice secretion result in experiment [2] (setting [5]) was “no inhibitory effect”. The amylase secretion result in the experiment on amylase secretion (rats, 10 mg/kg/h, 1 ml/h, i.v. infusion) is on record as “no inhibitory effect”.

Take `COC(=O)CCSCc1ccc(-c2onc(C)c2NC(=O)OC(C)c2ccccc2Cl)cc1` (stereo not drawn) [Compound 1, methyl 3-({4-[4-({[1-(2-chlorophenyl)ethoxy]carbonyl}amino)-3-methyl-5-isoxazolyl]benzyl}sulfanyl)propanoate]: in experiment [3] (Compound 1 administered together with 18:3-LPA (3 mg/kg/h), FIG. 5), the “recovery of pancreatic juice secretion from the inhibition by 18:3-LPA” value is “significantly recovered”. Further, the “basal (at resting) secretion volume of pancreatic juice vs control group (vehicle)” value in experiment [3] (Compound 1 alone, 10 mg/kg/h i.v. infusion, after one hour, FIG. 5) is reported as “no difference”.

Take `CC/C=C\C/C=C\C/C=C\CCCCCCCC(=O)OCC(O)COP(=O)(O)O` (stereo not drawn) [18:3-LPA, 1-linolenoyl-lyzophosphatidic acid]: the “pancreatic juice secretion increased by CCK-8” value in experiment [1] (3 mg/kg/h intravenous infusion, FIG. 4) was “reduced the increased pancreatic juice secretion approximately to the control level”. In the experiment on lipase secretion (3 and 10 mg/kg/h i.v. infusion, FIG. 3), the “amount of lipase secreted” value was “reduced significantly”. Moreover, the “dose at which the effect on pancreatic juice secretion reached approximately the maximum” value in experiment [2] (i.v. infusion 1 ml/h) is listed as around 3 mg/kg/h. In addition, the pancreatic juice secretion result in experiment [2] (i.v. infusion 1 ml/h for 1 hr, 18:3-LPA 1, 3, 10 mg/kg/h, FIG. 1) is recorded as “decreased”; in experiment [2] (i.v. infusion 1 ml/h for 1 hr, 18:3-LPA 1, 3, 10 mg/kg/h, FIG. 1, listed as LPA), “Dose-dependent inhibitory effect”; in experiment [4], “inhibited”. The “amount of amylase secreted” value in the experiment on amylase secretion (rats, 1, 3 or 10 mg/kg/h i.v. infusion, FIG. 2) is given as “reduced”. The “basal secretion volume of pancreatic juice” value in experiment [3] (18:3-LPA 3 mg/kg/h i.v. infusion) is listed as “inhibition of the basal secretion volume was observed”.
